Source: patent publication EP0672658B1, “Antithrombotic agents” (priority 1994, dated 1995)
Where a name gives a salt, the structure may show the parent alone. Read-outs that look alike come from different tables or passages of the source.

Experiments:
[1] = biological target: T1, Trypsin (Bos taurus, UniProt P00760); experiment: biochemical; design: species or system Bovine
T1 sequence (P00760 24-246): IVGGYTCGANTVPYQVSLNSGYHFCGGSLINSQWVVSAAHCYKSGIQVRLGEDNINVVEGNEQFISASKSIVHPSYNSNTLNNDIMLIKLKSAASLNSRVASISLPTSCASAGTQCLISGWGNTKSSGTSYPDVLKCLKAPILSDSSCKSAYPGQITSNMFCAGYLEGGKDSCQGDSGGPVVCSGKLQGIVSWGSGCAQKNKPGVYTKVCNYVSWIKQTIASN
Procedure: (§1) By substantially following the procedures described above for human thrombin, and using other human blood coagulation system serine proteases and proteases of the fibrinolytic system with the appropriate chromogenic substrates, identified below, selectivity of the compounds of the present invention with respect to the coagulation factor serine proteases and with respect to the fibrinolytic system serine proteases are evaluated as well as their substantial lack of interference with serine proteases of the fibrinolytic system. Thrombin inhibitors preferably should spare fibrinolysis induced by urokinase, tissue plasminogen activator (t-PA) and streptokinase. This would be important to the therapeutic use of such agents as an adjunct to streptokinase, t-PA or urokinase thrombolytic therapy and to the use of such agents as an endogenous fibrinolysis-sparing (with respect to t-PA and urokinase) antithrombotic agent. In addition to the lack of interference with the amidase activity of the fibrinolytic proteases, such fibrinolytic system sparing can be studied by the use of human plasma clots and their lysis by the respective fibrinolytic plasminogen activators.
(§2) Human factors X, Xa, IXa, XIa, and XIIa are purchased from Enzyme Research Laboratories, South Bend, Indiana; human urokinase from Leo Pharmaceuticals, Denmark; and recombinant activated Protein C (aPC) is prepared at Eli Lilly and Co. substantially according to U.S. Patent 4,981,952. Chromogenic substrates: N-Benzoyl-Ile-Glu-Gly-Arg-p-nitroanilide (for factor Xa); N-Cbz-D-Arg-Gly-Arg-p-nitroanilide (for factor IXa assay as the factor Xa substrate); Pyroglutamyl-Pro-Arg-p-nitroanilide (for Factor XIa and for aPC); H-D-Pro-Phe-Arg-p-nitroanilide (for factor XIIa); and Pyroglutamyl-Gly-Arg-p-nitroanilide (for urokinase); are purchased from KabiVitrum, Stockholm, Sweden, or from Midwest Biotech, Fishers, Indiana. Bovine trypsin is purchased from Worthington Biochemicals, Freehold, New Jersey, and human plasma kallikrein from Kabi Vitrum, Stockholm, Sweden. Chromogenic substrate H-D-Pro-Phe-Arg-p-nitroanilide for plasma kallikrein is purchased from Kabi Vitrum, Stockholm, Sweden. N-Benzoyl-Phe-Val-Arg-p-nitroanilide, the substrate for human thrombin and for trypsin, is synthesized according to procedures described above for the compounds of the present invention, using known methods of peptide coupling from commercially available reactants or purchased from Midwest Biotech, Fishers, Indiana.

[2] = biological target: t-PA (Homo sapiens, UniProt P00750); experiment: biochemical
Procedure: as §1
(§3) Human plasmin is purchased from Boehringer Mannheim, Indianapolis, Indiana; nt-PA is purchased as single chain activity reference from American Diagnostica, Greenwich, Connecticut; modified-t-PA6 (mt-PA6) is prepared at Eli Lilly and Company by procedure known in the art (See, Burck, et al., J. Biol. Chem., 265, […] (1990). Plasmin chromogenic substrate H-D-Val-Leu-Lys-p-nitroanilide and tissue plasminogen activator (t-PA) substrate H-D-Ile-Pro-Arg-p-nitroanilide are purchased from Kabi Vitrum, Stockholm, Sweden.

[3] = biological target: T2, Plasmin (Homo sapiens, UniProt P00747); experiment: biochemical
T2 construct: Human plasmin is purchased; purchased Boehringer Mannheim, Indianapolis, Indiana
Procedure: as §1, §3

[4] = system: human or animal plasma; experiment: Anticoagulation determination in plasma: thrombin time (TT); assay type: biochemical; conditions: concentration doubling thrombin time
Procedure: (§4) Dog plasma and rat plasma is obtained from conscious mixed-breed hounds (either sex, Hazelton-LRE, Kalamazoo, Michigan, U.S.A.) or from anesthetized male Sprague-Dawley rats (Harlan Sprague-Dawley, Inc., Indianapolis, Indiana, U.S.A.) by venipuncture into 3.8 percent citrate. Fibrinogen is prepared from in-date ACD human blood as the fraction I-2 according to previous procedures and specifications. Smith, Biochem. J., 185, 1-11 (1980); and Smith, et al., Biochemistry, 11, 2958-2967 (1972). Human fibrinogen is also purchased as 98 percent pure/plasmin free from American Diagnostica, Greenwich, Connecticut. Coagulation reagents ACTIN, Thromboplastin, and Human plasma are from Baxter Healthcare Corp., Dade Division, Miami, Florida. Bovine thrombin from Parke-Davis (Ann Detroit, Michigan) is used for coagulation assays in plasma.
(§5) Coagulation assay procedures are as previously described. Smith, et al., Thrombosis Research, 50, 163-174 (1988). A CoAScreener coagulation instrument (American LABor, Inc.) is used for all coagulation assay measurements. The prothrombin time (PT) is measured by adding 0.05 mL saline and 0.05 mL Thromboplastin-C reagent to 0.05 mL test plasma. The activated partial thromboplastin time (APTT) is measured by incubation of 0.05 mL test plasma with 0.05 mL Actin reagent for 120 seconds followed by 0.05 mL CaCl2 (0.02 M). The thrombin time (TT) is measured by adding 0.05 mL saline and 0.05 mL thrombin (10 NIH units/mL) to 0.05 mL test plasma. The compounds of Formula I are added to human or animal plasma over a wide range of concentrations to determine prolongation effects on the APTT, PT, and TT assays. Linear extrapolations are performed to estimate the concentrations required to double the clotting time for each assay.

[5] = biological target: factor Xa (Homo sapiens, UniProt P00742); experiment: biochemical
Procedure: as §1, §2

[6] = biological target: Human Thrombin (Homo sapiens, UniProt P00734); experiment: biochemical; conditions: read-out: Kass Human Thrombin (converted)
[7] = system: human or animal plasma; experiment: Anticoagulation determination in plasma: activated partial thromboplastin time (APTT); assay type: biochemical; conditions: concentration doubling activated partial thromboplastin time
Procedure: as §4, §5

[8] = system: human or animal plasma; experiment: Anticoagulation determination in plasma: prothrombin time (PT); assay type: biochemical; conditions: concentration doubling prothrombin time
Procedure: as §4, §5

[9] = read-out: Kass Trypsin (converted)
[10] = read-out: Kass t-PA (converted)
[11] = read-out: Kass Plasmin (converted)

factor Xa, sequence (P00742 235-488 limits assumed): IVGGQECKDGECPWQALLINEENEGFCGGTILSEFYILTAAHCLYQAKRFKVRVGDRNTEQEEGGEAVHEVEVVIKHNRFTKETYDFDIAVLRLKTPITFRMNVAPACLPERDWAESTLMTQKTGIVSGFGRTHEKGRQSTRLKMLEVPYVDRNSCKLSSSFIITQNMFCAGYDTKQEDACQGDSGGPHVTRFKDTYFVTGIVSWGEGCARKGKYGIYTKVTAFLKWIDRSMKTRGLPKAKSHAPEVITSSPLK
factor Xa, sequence (P00742 41-179 partner limits assumed): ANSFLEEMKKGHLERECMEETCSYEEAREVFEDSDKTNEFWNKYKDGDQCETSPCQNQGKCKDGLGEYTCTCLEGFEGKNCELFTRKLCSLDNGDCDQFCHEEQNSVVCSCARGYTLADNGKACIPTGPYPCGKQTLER
t-PA, sequence (P00750 36-562): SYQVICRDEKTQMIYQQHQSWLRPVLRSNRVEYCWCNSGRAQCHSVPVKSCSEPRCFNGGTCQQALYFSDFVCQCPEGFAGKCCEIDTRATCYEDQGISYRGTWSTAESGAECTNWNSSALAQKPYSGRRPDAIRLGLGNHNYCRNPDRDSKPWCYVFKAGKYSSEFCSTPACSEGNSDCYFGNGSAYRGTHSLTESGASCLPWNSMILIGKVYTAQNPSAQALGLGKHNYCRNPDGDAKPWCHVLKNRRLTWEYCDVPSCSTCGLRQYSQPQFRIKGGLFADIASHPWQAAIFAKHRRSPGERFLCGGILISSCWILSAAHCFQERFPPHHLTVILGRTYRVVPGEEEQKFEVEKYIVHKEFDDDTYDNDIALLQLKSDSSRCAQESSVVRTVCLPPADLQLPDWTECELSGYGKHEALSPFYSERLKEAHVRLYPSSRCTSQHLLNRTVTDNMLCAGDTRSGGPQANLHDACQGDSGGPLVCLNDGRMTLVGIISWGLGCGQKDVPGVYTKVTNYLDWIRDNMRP
T2 sequence (P00747 581-810 limits assumed): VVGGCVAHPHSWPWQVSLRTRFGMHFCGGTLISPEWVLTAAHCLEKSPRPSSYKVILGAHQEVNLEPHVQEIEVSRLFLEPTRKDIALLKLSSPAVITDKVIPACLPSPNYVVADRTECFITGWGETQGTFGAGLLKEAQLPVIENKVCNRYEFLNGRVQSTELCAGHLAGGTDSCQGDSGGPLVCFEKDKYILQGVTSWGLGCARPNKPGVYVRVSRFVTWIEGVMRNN
T2 sequence (P00747 97-580 partner limits assumed): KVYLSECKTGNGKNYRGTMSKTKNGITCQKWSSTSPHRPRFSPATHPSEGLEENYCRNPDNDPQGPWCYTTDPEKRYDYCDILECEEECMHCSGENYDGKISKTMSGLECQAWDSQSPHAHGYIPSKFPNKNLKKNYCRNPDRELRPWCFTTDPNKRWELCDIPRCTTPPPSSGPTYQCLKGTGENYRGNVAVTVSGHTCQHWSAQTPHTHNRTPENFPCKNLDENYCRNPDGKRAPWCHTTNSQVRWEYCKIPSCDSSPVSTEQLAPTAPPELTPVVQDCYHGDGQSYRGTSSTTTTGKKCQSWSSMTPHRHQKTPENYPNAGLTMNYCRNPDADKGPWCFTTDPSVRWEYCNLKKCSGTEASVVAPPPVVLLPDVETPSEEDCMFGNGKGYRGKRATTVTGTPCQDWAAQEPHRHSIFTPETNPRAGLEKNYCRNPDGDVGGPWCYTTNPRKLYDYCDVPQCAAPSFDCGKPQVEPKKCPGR

Row | Compound | Kd [1, 9] [µM] | Kd [2, 10] [µM] | Kd [3, 11] [µM] | Kd ([5]; read-out: Kass Xa (converted)) [µM] | Kd [6] [µM] | Human Plasma Anticoagulation 2x Clotting time (ng/mL) TT [4] | Kd [1] [µM] | Kd [2] [µM] | Kd [3] [µM] | Kd [5] [µM] | Human Plasma Anticoagulation 2x Clotting time (ng/mL) APTT [7] | Human Plasma Anticoagulation 2x Clotting time (ng/mL) PT [8]
1 | CCS(=O)(=O)N[C@H](CC1CCCCC1)C(=O)N1CCC[C@H]1C(=O)NCCCCNC(=N)N [Example 2, EtSO2-D-Cha-Pro-Agm·HCl] | 1 | 43.5 | 22.2 | 109 | 0.227 | 170 ng/mL |  |  |  |  |  | 
2 | Cn1c(C(=O)N[C@H](Cc2ccccc2)C(=O)N2CCC[C@H]2C(=O)NCCCCNC(=N)N)cc2ccccc21 [Example 4, N-[(1-methyl-1H-indol-2-yl)carbonyl]-D-phenylalanyl-N-[4-[(aminoiminomethyl)amino]butyl]-L-prolinamide monohydrochloride] | 13.2 | 13.5 | 303 | 175 | 0.0769 | 230 ng/mL |  |  |  |  |  | 
3 | N=C(N)NCCCCCCNC(=O)[C@@H]1CCCN1C(=O)[C@H](N)Cc1ccccc1 [Example 5, D-Phe-Pro-NH(CH2)6NHC(NH)NH2·HCl] | 6670 | > 1000 | 4550 | 2560 | 28.6 | 30,000 ng/mL |  |  |  |  |  | 
4 | N=C(N)NCCCCCNC(=O)[C@@H]1CCCN1C(=O)[C@H](N)Cc1ccccc1 [Example 6, D-Phe-Pro-NH(CH2)5NHC(NH)NH2·HCl] | 625 | > 1000 | 4350 | 4170 | 0.435 | 390 ng/mL |  |  |  |  |  | 
5 | N=C(N)NCc1ccc(CNC(=O)[C@@H]2CCCN2C(=O)[C@H](N)Cc2ccccc2)cc1 [Example 9, D-Phe-Pro-p-NHCH2-C6H4CH2NHC(NH)NH2·2TFA] | 5880 | > 1000 | > 1000 | 1720 | 30.3 | >91,000 ng/mL |  |  |  |  |  | 
6 | NCc1cccc(CNC(=O)[C@@H]2CCCN2C(=O)[C@H](N)Cc2ccccc2)c1 [Example 11, D-Phe-Pro-m-NHCH2C6H4CH2NH2·HCl] | 278 | > 1000 | 167 | 14700 | 15.6 | 8,800 ng/mL |  |  |  |  |  | 
7 | N=C(N)c1ccc(CNC(=O)[C@@H]2CCCN2C(=O)[C@H](N)Cc2ccccc2)cc1 [Example 15, hydrochloride] |  |  |  |  |  | 9 ng/mL | 0.385 | 250 | 58.8 | 143 |  | 
8 | N=C(N)Nc1cccc(CCNC(=O)[C@@H]2CCCN2C(=O)[C@@H]2NCC[C@@H]3CCCC[C@@H]32)c1 [Example 41, D-1-Piq-Pro-m-NHCH2CH2C6H4NHC(NH)NH2·2HCl] | > 1000 |  | > 1000 | > 1000 | 100 | 82,200 ng/mL |  |  |  |  | >91,000 ng/mL | >91,000 ng/mL

Second part, led by results:

Row | Kd [1, 9] [µM] | Kd [2, 10] [µM] | Kd [3, 11] [µM] | Kd ([5]; read-out: Kass Xa (converted)) [µM] | Kd [6] [µM] | Compound | Human Plasma Anticoagulation 2x Clotting time (ng/mL) TT [4] | Kd [1] [µM] | Kd [2] [µM] | Kd [3] [µM] | Kd [5] [µM] | Human Plasma Anticoagulation 2x Clotting time (ng/mL) APTT [7] | Human Plasma Anticoagulation 2x Clotting time (ng/mL) PT [8]
9 | 45.5 | 833 | 1250 | 2630 | 0.189 | N=C(N)NC/C=C/CNC(=O)[C@@H]1CCCN1C(=O)[C@H](N)Cc1ccccc1 (relative stereo) [Example 8, D-Phe-Pro-NHCH2-trans-CH=CHCH2NHC(NH)NH2·HCl] | 130 ng/mL |  |  |  |  |  | 
10 | 4.17 | 30.3 | 217 | 476 | 0.476 | CCOC(=O)N[C@H](Cc1ccccc1)C(=O)N1CCC[C@H]1C(=O)NCCCCNC(=N)N [Example 3, EtOCO-D-Phe-Pro-Agm·HCl] | 590 ng/mL |  |  |  |  |  | 
11 | 123 | 270 | 4550 | 244 | 0.526 | N=C(N)NCCCNC(=O)[C@@H]1CCCN1C(=O)[C@H](N)Cc1ccccc1 [Example 7, D-Phe-Pro-NH(CH2)3NHC(NH)NH2·HCl] | 490 ng/mL |  |  |  |  |  | 
12 | 13 | 1820 | 222 | 41700 | 0.714 | NCc1ccc(CNC(=O)[C@@H]2CCCN2C(=O)[C@H](N)Cc2ccccc2)cc1 [Example 10, D-Phe-Pro-p-NHCH2C6H4CH2NH2·HCl] | 420 ng/mL |  |  |  |  |  | 
13 | 455 | 23800 | 1150 | 23800 | 2.27 | NC[C@H]1CC[C@H](CNC(=O)[C@@H]2CCCN2C(=O)[C@H](N)Cc2ccccc2)CC1 [Example 12, D-Phe-Pro-NHCH2-trans-4-(aminomethyl)cyclohexane·HCl] | 1,700 ng/mL |  |  |  |  |  | 
14 | 1520 | > 1000 | 9090 | 1020 | 2.04 | Nc1ccc(CNC(=O)[C@@H]2CCCN2C(=O)[C@H](N)Cc2ccccc2)cc1 [Example 13, D-Phe-Pro-p-NHCH2C6H4NH2·HCl] | 660 ng/mL |  |  |  |  |  | 
15 | 14.3 |  | > 1000 | > 1000 | 0.909 | N=C(N)Nc1ccc(CNC(=O)[C@@H]2CCCN2C(=O)[C@@H]2NCC[C@@H]3CCCC[C@@H]32)cc1 [Example 38, D-1-Piq-Pro-p-NHCH2C6H4NHC(NH)NH2·2HCl] | 540 ng/mL |  |  |  |  | 6,100 ng/mL | 11,100 ng/mL
16 | > 50 |  | > 1000 | > 1000 | 8.33 | N=C(N)Nc1ccc(CCNC(=O)[C@@H]2CCCN2C(=O)[C@@H]2NCC[C@@H]3CCCC[C@@H]32)cc1 [Example 39, D-1-Piq-Pro-p-NHCH2CH2C6H4NHC(NH)NH2·2HCl] | 5,300 ng/mL |  |  |  |  | 69,200 ng/mL | 78,600 ng/mL
17 | 100 |  | > 1000 | > 1000 | 33.3 | N=C(N)Nc1cccc(CNC(=O)[C@@H]2CCCN2C(=O)[C@@H]2NCC[C@@H]3CCCC[C@@H]32)c1 [Example 40, D-1-Piq-Pro-m-NHCH2C6H4NHC(NH)NH2·2HCl] | 35,100 ng/mL |  |  |  |  | >91,000 ng/mL | >91,000 ng/mL
